In PubChem BioAssay (NCI):
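Five compound concentrations were applied to cells in 96-well plates for 48 hours; endpoints were derived by simple linear interpolation of the resulting dose-response curve. The concentration for 50% growth inhibition is given as GI50. TGI: total growth inhibition.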

How the values were obtained:
Assay in all cases: inhibition of tumour cell growth, NCI panel, 48 h; in the data active means GI50 below about 0.43 µM; inactive means the rest
A498 renal = tested on: A498 renal
HCT-15 colon = tested on: HCT-15 colon
HT29 colon = tested on: HT29 colon
LOX IMVI melanoma = tested on: LOX IMVI melanoma
M14 melanoma = tested on: M14 melanoma
OVCAR-5 ovarian = tested on: OVCAR-5 ovarian
PC-3 prostate = tested on: PC-3 prostate
SF-539 CNS = tested on: SF-539 CNS
SN12C renal = tested on: SN12C renal
SNB-19 CNS = tested on: SNB-19 CNS

C[N+](C)(C)CCOP(=O)(O)OP(=O)([O-])OCC1CCC(n2ccc(N)nc2=O)O1 (centres undefined)
> 100 µM: TGI (A498 renal) | TGI (HCT-15 colon) | TGI (HT29 colon) | TGI (LOX IMVI melanoma) | TGI (M14 melanoma) | TGI (OVCAR-5 ovarian) | TGI (PC-3 prostate) | TGI (SF-539 CNS) | TGI (SN12C renal) | TGI (SNB-19 CNS)

O=C1Cc2cc(CCn3ccnc3)c(Cl)cc2N1
61.1 µM: TGI (A498 renal)
39.8 µM: TGI (M14 melanoma)
inactive: GI50 (A498 renal) 2.19 µM | GI50 (HCT-15 colon) 7.07 µM | GI50 (HT29 colon) > 100 µM | GI50 (LOX IMVI melanoma) 85.3 µM | GI50 (M14 melanoma) 3.46 µM | GI50 (OVCAR-5 ovarian) 44.8 µM | GI50 (PC-3 prostate) 35.6 µM | GI50 (SF-539 CNS) 60 µM | GI50 (SN12C renal) 16.5 µM | GI50 (SNB-19 CNS) 22.1 µM
> 100 µM: TGI (HCT-15 colon) | TGI (HT29 colon) | TGI (LOX IMVI melanoma) | TGI (OVCAR-5 ovarian) | TGI (PC-3 prostate) | TGI (SF-539 CNS) | TGI (SN12C renal) | TGI (SNB-19 CNS)

Nc1ccc2c(c1)C(=O)c1ccc(F)cc1-2
> 100 µM: TGI (A498 renal) | TGI (HCT-15 colon) | TGI (HT29 colon) | TGI (LOX IMVI melanoma) | TGI (M14 melanoma) | TGI (OVCAR-5 ovarian) | TGI (PC-3 prostate) | TGI (SF-539 CNS) | TGI (SN12C renal) | TGI (SNB-19 CNS)

COc1ccc2c(c1)C(=O)c1c-2n(CCCN=[N+]=[N-])c(=O)c2ccccc12
69.2 µM: TGI (A498 renal)
> 100 µM: TGI (HCT-15 colon) | TGI (HT29 colon) | TGI (LOX IMVI melanoma) | TGI (M14 melanoma) | TGI (OVCAR-5 ovarian) | TGI (PC-3 prostate) | TGI (SF-539 CNS) | TGI (SN12C renal) | TGI (SNB-19 CNS)
inactive: GI50 (A498 renal) 21.1 µM | GI50 (HCT-15 colon) 58.4 µM | GI50 (HT29 colon) 41.4 µM | GI50 (LOX IMVI melanoma) 27.9 µM | GI50 (M14 melanoma) 75.1 µM | GI50 (OVCAR-5 ovarian) > 100 µM | GI50 (PC-3 prostate) 51.4 µM | GI50 (SF-539 CNS) 44.8 µM | GI50 (SN12C renal) > 100 µM | GI50 (SNB-19 CNS) 17.6 µM

C=CCN1C(=O)/C(=c2\sc3n(c2=O)C2C(NN=3)N(CC)C(=O)N2CC)c2ccccc21 (centres undefined)
inactive: GI50 (HCT-15 colon) 0.451 µM | GI50 (LOX IMVI melanoma) 0.698 µM | GI50 (M14 melanoma) 0.446 µM | GI50 (OVCAR-5 ovarian) 1.55 µM | GI50 (PC-3 prostate) 0.548 µM | GI50 (SN12C renal) 0.7 µM | GI50 (SNB-19 CNS) 0.973 µM
2.87 µM: TGI (SF-539 CNS)
> 74.9 µM: TGI (SNB-19 CNS)
1.17 µM: TGI (A498 renal)
> 100 µM: TGI (HCT-15 colon) | TGI (LOX IMVI melanoma) | TGI (M14 melanoma) | TGI (OVCAR-5 ovarian) | TGI (PC-3 prostate) | TGI (SN12C renal)
active: GI50 (A498 renal) 0.246 µM | GI50 (HT29 colon) 0.39 µM | GI50 (SF-539 CNS) 0.346 µM

CC1C2Cc3ccc(O)cc3C1(C)CCN2C (centres undefined)
> 100 µM: TGI (A498 renal) | TGI (HCT-15 colon) | TGI (HT29 colon) | TGI (LOX IMVI melanoma) | TGI (M14 melanoma) | TGI (OVCAR-5 ovarian) | TGI (PC-3 prostate) | TGI (SF-539 CNS) | TGI (SN12C renal) | TGI (SNB-19 CNS)

Fc1ccc(-c2nc(-c3nc4ccc(Cl)cc4[nH]3)cc3c2[nH]c2ccccc23)cc1
inactive: GI50 (A498 renal) 2.01 µM | GI50 (HCT-15 colon) 3.63 µM | GI50 (HT29 colon) 4.31 µM | GI50 (LOX IMVI melanoma) 2.41 µM | GI50 (M14 melanoma) 3.05 µM | GI50 (OVCAR-5 ovarian) 6.13 µM | GI50 (PC-3 prostate) 2.09 µM | GI50 (SF-539 CNS) 3.55 µM | GI50 (SN12C renal) 3.04 µM | GI50 (SNB-19 CNS) 4.27 µM
6.95 µM: TGI (PC-3 prostate)
24.4 µM: TGI (SN12C renal)
11.4 µM: TGI (M14 melanoma)
22.1 µM: TGI (OVCAR-5 ovarian)
> 100 µM: TGI (SNB-19 CNS)
6.63 µM: TGI (LOX IMVI melanoma)
15.9 µM: TGI (HCT-15 colon)
9.71 µM: TGI (A498 renal)
13.8 µM: TGI (SF-539 CNS)
12.8 µM: TGI (HT29 colon)

CCOc1ccc(Cc2nccc3cc(OCC)c(OCC)cc23)cc1OCC
20.7 µM: TGI (SF-539 CNS)
22 µM: TGI (OVCAR-5 ovarian)
23.5 µM: TGI (M14 melanoma)
12.6 µM: TGI (HT29 colon)
22.3 µM: TGI (SN12C renal)
33.4 µM: TGI (PC-3 prostate)
inactive: GI50 (A498 renal) 0.763 µM | GI50 (HCT-15 colon) 10.2 µM | GI50 (HT29 colon) 0.863 µM | GI50 (LOX IMVI melanoma) 2.9 µM | GI50 (M14 melanoma) 9.41 µM | GI50 (OVCAR-5 ovarian) 4.58 µM | GI50 (PC-3 prostate) 4.41 µM | GI50 (SF-539 CNS) 5.87 µM | GI50 (SN12C renal) 4.08 µM | GI50 (SNB-19 CNS) 10.7 µM
19.9 µM: TGI (A498 renal)
17 µM: TGI (LOX IMVI melanoma)
29.8 µM: TGI (HCT-15 colon)
31.8 µM: TGI (SNB-19 CNS)

O=C1NC(=NCC(CO)c2ccccc2)S/C1=C\c1ccc2ncccc2c1 (centres undefined)
> 25 µM: TGI (A498 renal) | TGI (HCT-15 colon) | TGI (HT29 colon) | TGI (LOX IMVI melanoma) | TGI (M14 melanoma) | TGI (OVCAR-5 ovarian) | TGI (PC-3 prostate) | TGI (SF-539 CNS) | TGI (SN12C renal) | TGI (SNB-19 CNS)
inactive: GI50 (A498 renal) > 15.3 µM | GI50 (HCT-15 colon) > 21.8 µM | GI50 (HT29 colon) 19.7 µM | GI50 (LOX IMVI melanoma) 17.4 µM | GI50 (M14 melanoma) > 25 µM | GI50 (OVCAR-5 ovarian) > 25 µM | GI50 (PC-3 prostate) > 25 µM | GI50 (SF-539 CNS) 11.2 µM | GI50 (SN12C renal) 17.6 µM | GI50 (SNB-19 CNS) > 25 µM

CCN1CCC[C@H]1c1cc(O)c2c(c1OC)C[C@H]1C[C@H]3[C@H](N)C(=O)C(C(N)=O)=C(O)[C@@]3(O)C(=O)C1=C2O
5.17 µM: TGI (HCT-15 colon)
0.2 µM: TGI (A498 renal)
1.37 µM: TGI (M14 melanoma)
4.12 µM: TGI (OVCAR-5 ovarian)
0.593 µM: TGI (SF-539 CNS)
1.5 µM: TGI (SN12C renal)
1.23 µM: TGI (LOX IMVI melanoma)
5.43 µM: TGI (HT29 colon)
8.76 µM: TGI (PC-3 prostate)
active: GI50 (A498 renal) 0.0315 µM | GI50 (HCT-15 colon) 0.0547 µM | GI50 (HT29 colon) 0.112 µM | GI50 (LOX IMVI melanoma) 0.0386 µM | GI50 (M14 melanoma) 0.0492 µM | GI50 (OVCAR-5 ovarian) 0.187 µM | GI50 (PC-3 prostate) 0.151 µM | GI50 (SF-539 CNS) 0.0634 µM | GI50 (SN12C renal) 0.0682 µM | GI50 (SNB-19 CNS) 0.113 µM
2.04 µM: TGI (SNB-19 CNS)
